Laboratory results: paper PMC3440348, “Identification of Novel Human Dipeptidyl Peptidase-IV Inhibitors of Natural Origin (Part I): Virtual Screening and Activity Assays” (PLoS ONE, 2012)

Target: T1, DPP-IV (dipeptidyl peptidase-IV) (Homo sapiens, UniProt P27487)
T1 construct: gene DPP4; commercial recombinant human DPP-IV
Assay: fluorimetric DPP-IV inhibition assay (H-Gly-Pro-AMC), dose-response
Assay type: biochemical

T1 sequence (P27487 39-766): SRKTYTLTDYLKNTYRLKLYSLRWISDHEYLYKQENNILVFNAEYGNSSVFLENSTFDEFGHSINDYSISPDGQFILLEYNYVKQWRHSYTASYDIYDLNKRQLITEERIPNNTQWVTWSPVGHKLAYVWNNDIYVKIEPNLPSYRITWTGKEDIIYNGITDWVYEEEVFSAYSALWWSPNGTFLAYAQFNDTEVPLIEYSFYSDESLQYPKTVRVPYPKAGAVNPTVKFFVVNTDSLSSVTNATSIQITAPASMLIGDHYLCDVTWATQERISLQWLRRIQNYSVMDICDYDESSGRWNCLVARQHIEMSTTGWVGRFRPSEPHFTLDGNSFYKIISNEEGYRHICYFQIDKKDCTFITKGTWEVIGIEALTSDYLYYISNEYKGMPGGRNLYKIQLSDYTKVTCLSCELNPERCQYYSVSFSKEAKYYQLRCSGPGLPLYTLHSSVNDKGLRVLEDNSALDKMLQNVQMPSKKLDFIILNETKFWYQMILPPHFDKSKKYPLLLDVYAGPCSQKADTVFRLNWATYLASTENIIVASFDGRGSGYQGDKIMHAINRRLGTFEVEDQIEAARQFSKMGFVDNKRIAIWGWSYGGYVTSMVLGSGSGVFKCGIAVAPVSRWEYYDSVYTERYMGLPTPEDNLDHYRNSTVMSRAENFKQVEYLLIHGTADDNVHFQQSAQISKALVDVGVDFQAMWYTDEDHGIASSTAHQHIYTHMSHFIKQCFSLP

CCCCN(C)Cc1c(O)ccc2c(-c3cc4ccccc4oc3=O)cc(=O)oc12 [C5, ZINC02132035]
IC50: 61.6 µM
